Results reported in US8637683B2, “Macrocyclic lactone derivatives for the treatment of cancer” (Piramal Enterprises Limited, priority 2009, dated 2014).
In brackets after ≈: the same amount, converted by molar mass.

How the values were obtained:
Assay type in all cases: cell-based, human
RXF 1781L = assay: Monolayer assay (modified propidium iodide), RXF 1781L; conditions: Renal, 4 days of treatment
Source text: (§1) Oncotest GmbH, Germany's proprietary tumor cell line panel comprises 40 cell lines. These cell lines were derived from 15 different tumor histotypes, each represented by 1 to 6 different cell lines. Cell lines were established from cancer of the bladder (3), colon (4), head and neck (1), lung (6), breast (3), pancreas (3), prostate (4), ovary (2), kidney (3), liver (1), stomach (1) and the uteri body (1), as well as from melanoma (3), sarcoma (2) and pleuramesothelioma (3). Out of these 40 cell lines, 24 cell lines were established at Oncotest, from patient-derived tumor xenografts. […]
(§2) Stock solutions of the test compounds (330 μg/mL in DMSO) were prepared and stored in small aliquots (200 μL) at −20° C. […] Each concentration was evaluated in triplicate. […]
(§3) Cells were plated in 96-well flat-bottom microtiter plates at a cell density of 4,000 to 10,000 cells/well. […] To measure the viable cell number, the remaining adherent cells were killed and permeabilized by repeated freezing and thawing and PI fluorescence was measured using the Cytofluor 4000 microplate reader (excitation λ=530 nm, emission λ=620 nm), which was a measure for the number of cells which survived treatment. […] IC-values were calculated based on the principle of linear two-point curve fit. […]

LXF 526L = assay: Monolayer assay (modified propidium iodide), LXF 526L; conditions: Lung, 4 days of treatment
Source text: (§4) Oncotest GmbH, Germany's proprietary tumor cell line panel comprises 40 cell lines. These cell lines were derived from 15 different tumor histotypes, each represented by 1 to 6 different cell lines. Cell lines were established from cancer of the bladder (3), colon (4), head and neck (1), lung (6), breast (3), pancreas (3), prostate (4), ovary (2), kidney (3), liver (1), stomach (1) and the uteri body (1), as well as from melanoma (3), sarcoma (2) and pleuramesothelioma (3). Out of these 40 cell lines, 24 cell lines were established at Oncotest, from patient-derived tumor xenografts. The other 16 cell lines were either provided by the NCI (Bethesda; MD, USA) or were purchased from ATCC (Rockville, Md., USA) or DSMZ (Braunschweig, Germany).
(§5) Cell lines were routinely passaged once or twice weekly and maintained in culture for upto 20 passages. All cells were grown at 37° C. in a humidified atmosphere with 5% CO2 in RPMI 1640 medium supplemented with 10% (v/v) fetal calf serum (FCS) and 0.1 mg/mL gentamicin (medium and all other components from PAA, Cölbe, Germany). […]
as §2
as §3, with “treatment. Pharmacological effects on cell proliferation and survival were expressed as Test/Control×100 (% T/C) values, with T and C representing the fluorescence read-outs for wells with and without test compound, respectively, i.e. T/C represents the ratio of viable cell numbers following incubation of cell line with/without test compound.” for “treatment.”

GXF 251 L = assay: Monolayer assay (modified propidium iodide), GXF 251 L; conditions: Gastric, 4 days of treatment
Source text: as §1, §2, §3

T 24 = assay: Monolayer assay (modified propidium iodide), T 24; conditions: T 24, Bladder, 4 days of treatment
Source text: as §4, §5, §2
as §3, with “treatment. Pharmacological effects on cell proliferation and survival were expressed as Test/Control×100 (% T/C) values, with T and C representing the fluorescence read-outs for wells with and without test compound, respectively, i.e. T/C represents the ratio of viable cell numbers following incubation of cell line with/without test compound.” for “treatment.”

CXF 269L = assay: Monolayer assay (modified propidium iodide), CXF 269L; conditions: Colon, 4 days of treatment
Source text: as §4, §5, §2
as §3, with “treatment. Pharmacological effects on cell proliferation and survival were expressed as Test/Control×100 (% T/C) values, with T and C representing the fluorescence read-outs for wells with and without test compound, respectively, i.e. T/C represents the ratio of viable cell numbers following incubation of cell line with/without test compound.” for “treatment.”

CAL 27 = assay: Monolayer assay (modified propidium iodide), CAL 27; conditions: CAL 27, Head and Neck, 4 days of treatment
Source text: as §1, §2, §3

PAXF 546L = assay: Monolayer assay (modified propidium iodide), PAXF 546L; conditions: Pancreas, 4 days of treatment
Source text: as §1, §2, §3

C/C=C/C(O)C(C)/C=C/C(=N\O)C(C)C(O)C(C)C1OC(=O)/C(OC)=C/C(C)=C/C(C)C(O)C(CC)C(O)C(C)C/C(C)=C/C=C/C1OC (centres unmarked) [Example 7, (3Z,5E,13E,15E)-18-((5Z,6E,10E)-3,9-Dihydroxy-5-(hydroxymino)-4,8-dimethyldodeca-6,10-dien-2-yl)-9-ethyl-8,10-dihydroxy-3,17-dimethoxy-5,7,11,13-tetramethyl oxacyclooctadeca-3,5,13,15-tetraen-2-one]
IC50 (RXF 1781L; Homo sapiens, 96 h): 7 ng/mL (≈ 10.1 nM)
IC70 (RXF 1781L): 28.0 ng/mL (≈ 40.6 nM)
IC50 (LXF 526L; Homo sapiens, 96 h): < 0.1 ng/mL
IC70 (LXF 526L): 0.1 ng/mL (≈ 0.145 nM)
IC70 (GXF 251 L): 6.0 ng/mL (≈ 8.7 nM)
IC50 (GXF 251 L; Homo sapiens, 96 h): 1 ng/mL (≈ 1.45 nM)
IC50 (T 24; Homo sapiens, 96 h): < 0.1 ng/mL
IC70 (T 24): 0.3 ng/mL (≈ 0.435 nM)
IC70 (CXF 269L): 0.2 ng/mL (≈ 0.29 nM)
IC50 (CXF 269L; Homo sapiens, 96 h): < 0.1 ng/mL
IC70 (CAL 27): 1.0 ng/mL (≈ 1.45 nM)
IC50 (CAL 27; Homo sapiens, 96 h): < 0.1 ng/mL
IC50 (PAXF 546L; Homo sapiens, 96 h): 0.5 ng/mL (≈ 0.725 nM)
IC70 (PAXF 546L): >1000 ng/mL
